Measured values taken from ChEMBL document CHEMBL4622980, “Peptide Inhibitors of Bacterial Protein Synthesis with Broad Spectrum and SbmA-Independent Bactericidal Activity against Clinical Pathogens” (J Med Chem, 2020).
Active and inactive are the calls of the source. No cut-off for these calls is given here.

Columns and labels:
[1] = tested on: Escherichia coli; assay: Antibacterial activity against Escherichia coli BW25113 assessed as prevention visible bacterial growth incubated for 18 hrs; type: functional; details: BW25113, 18 h
[2] = tested on: Klebsiella pneumoniae; assay: Antibacterial activity against Klebsiella pneumoniae 700603 assessed as prevention visible bacterial growth incubated for 18 hrs; type: functional; details: Klebsiella pneumoniae, 700603, 18 h
[3] = tested on: Staphylococcus aureus; assay: Bactericidal activity against Staphylococcus aureus ATCC 25923 assessed as prevention visible bacterial growth incubated for 18 hrs; type: functional; details: ATCC 25923, 18 h
[4] = tested on: Klebsiella pneumoniae; assay: Bactericidal activity against Klebsiella pneumoniae 700603 assessed as prevention visible bacterial growth incubated for 18 hrs; type: functional; details: Klebsiella pneumoniae, 700603, 18 h
[5] = tested on: Escherichia coli; assay: Bactericidal activity against Escherichia coli BW25113 expressing delta sbmA mutation assessed as prevention visible bacterial growth incubated for 18 hrs; type: functional; details: BW25113, 18 h
[6] = tested on: Acinetobacter baumannii; assay: Antibacterial activity against Acinetobacter baumannii ATCC 19606 assessed as prevention visible bacterial growth incubated for 18 hrs; type: functional; details: ATCC 19606 = CIP 70.34 = JCM 6841, 18 h
[7] = tested on: Pseudomonas aeruginosa; assay: Bactericidal activity against Pseudomonas aeruginosa ATCC 27853 assessed as prevention visible bacterial growth incubated for 18 hrs; type: functional; details: ATCC 27853, 18 h
[8] = Cytotoxicity in human MEC1 cells assessed as reduction in cell viability incubated for 20 hrs by MTT assay; type: cell-based
[9] = tested on: Acinetobacter baumannii; assay: Bactericidal activity against Acinetobacter baumannii ATCC 19606 assessed as prevention visible bacterial growth incubated for 18 hrs; type: functional; details: ATCC 19606 = CIP 70.34 = JCM 6841, 18 h
[10] = tested on: Escherichia coli; assay: Induction of membrane permeabilization in Escherichia coli BW25113 at 1 to 2 uM incubated for 30 mins by ONPG/beta-galactosidase assay; type: functional, organism-based
[11] = tested on: Escherichia coli; assay: Antibacterial activity against Escherichia coli ATCC 25922 assessed as prevention visible bacterial growth incubated for 18 hrs; type: functional; details: ATCC 25922, 18 h
[12] = tested on: Escherichia coli; assay: Bactericidal activity against Escherichia coli BW25113 assessed as prevention visible bacterial growth incubated for 18 hrs; type: functional; details: BW25113, 18 h
[13] = tested on: Escherichia coli; assay: Antibacterial activity against Escherichia coli clinical isolates assessed as prevention visible bacterial growth incubated for 18 hrs; type: functional
[14] = tested on: Pseudomonas aeruginosa; assay: Antibacterial activity against Pseudomonas aeruginosa ATCC 27853 assessed as prevention visible bacterial growth incubated for 18 hrs; type: functional; details: ATCC 27853, 18 h
[15] = tested on: Escherichia coli; assay: Antibacterial activity against Escherichia coli ATCC 25922 assessed as prevention visible bacterial growth incubated for 18 hrs in presence of 10% (v/v) human serum in full MH medium; type: functional; details: ATCC 25922, 18 h
[16] = tested on: Staphylococcus aureus; assay: Antibacterial activity against Staphylococcus aureus ATCC 25923 assessed as prevention visible bacterial growth incubated for 18 hrs; type: functional; details: ATCC 25923, 18 h
[17] = tested on: Escherichia coli; assay: Antibacterial activity against Escherichia coli BW25113 expressing delta sbmA mutation assessed as prevention visible bacterial growth incubated for 18 hrs; type: functional; details: BW25113, 18 h
[18] = tested on: Escherichia coli; assay: Bactericidal activity against Escherichia coli ATCC 25922 assessed as prevention visible bacterial growth incubated for 18 hrs; type: functional; details: ATCC 25922, 18 h
[19] = tested on: Escherichia coli; assay: Inhibition of in-vitro transcription/translation in Escherichia coli lysates at 1 uM incubated for 1 hr by luciferase reporter gene assay relative to control; type: functional

Row | Substance | MIC99 [1] [µM] | further results
1 | H-RRIRPRPPRLPRERPR-OH | 64 | –
2 | H-RRIRPRPPRLPRFRPR-OH | 8 | –
3 | H-RRIRPRPPRLPRGRPR-OH | 16 | –
4 | H-RRIRPRPPRLPRPAPR-OH | 32 | –
5 | H-RRIRPRPPRLPRPEPR-OH | 64 | –
6 | H-RRIRPRPPRLPRPFPR-OH | 8 | –
7 | H-RRIRPRPPRLPRPGPR-OH | 32 | –
8 | H-RRIRPRPPRLPRPPPR-OH | 32 | –
9 | H-RRIRPRPPRLPRPRAR-OH | 8 | –
10 | H-RRIRPRPPRLPRPRER-OH | 32 | –
11 | H-RRIRPRPPRLPRPRFR-OH | 8 | –
12 | H-RRIRPRPPRLPRPRGR-OH | 16 | –
13 | H-RRIRPRPPRLPRPRPA-OH | 16 | –
14 | H-RRIRPRPPRLPRPRPE-OH | 64 | –
15 | H-RRIRPRPPRLPRPRPF-OH | 8 | –
16 | H-RRIRPRPPRLPRPRPG-OH | 16 | –
17 | H-RRIRPRPPRLPRPRPP-OH | 32 | –
18 | H-RRIRPRPPRLPRPRPR-OH | 2 to 8 | MIC99 [2]: 4 µM; MBC [3]: > 64 µM; MBC [4]: 64 µM; MBC [5]: 64 µM; MIC99 [6]: 32 µM; MBC [7]: > 64 µM; CC50 at 20 h [8]: > 64 µM; MBC [9]: > 64 µM; Activity [10]: inactive; MIC99 [11]: 1 µM; MBC [12]: 4 µM; MIC99 [13]: > 1 µM; MIC99 [14]: > 64 µM; MIC [15]: 1 µM; MIC99 [16]: > 64 µM; MIC99 [17]: 16 µM; MBC [18]: 2 µM
19 | H-RRIRPRPPRLPRPRPS-OH | 16 | –
20 | H-RRIRPRPPRLPRPRPW-OH | 8 | –

Row | Substance | MIC99 [1] [µM] | further results
21 | H-RRIRPRPPRLPRPRRR-OH | 16 | –
22 | H-RRIRPRPPRLPRPRSR-OH | 16 | –
23 | H-RRIRPRPPRLPRPSPR-OH | 32 | –
24 | H-RRIRPRPPRLPRPWPR-OH | 4 | –
25 | H-RRIRPRPPRLPRRRPR-OH | 8 | –
26 | H-RRIRPRPPRLPRSRPR-OH | 16 | –
27 | H-RRIRPRPPRLPRWRPR-OH | 2 | –
28 | H-RRIRPRPPRLPSPRPR-OH | 16 | –
29 | H-RRIRPRPPRLPWPRPR-OH | 8 | –
30 | H-RRIRPRPPRLRRPRPR-OH | 16 | –
31 | H-RRIRPRPPRLSRPRPR-OH | 32 | –
32 | H-RRIRPRPPRLWRPRPR-OH | 8 | –
33 | H-RRIRPRPPRPPRPRPR-OH | 64 | –
34 | H-RRIRPRPPRRPRPRPR-OH | 32 | –
35 | H-RRIRPRPPRSPRPRPR-OH | 32 | –
36 | H-RRIRPRPPRWPRPRPR-OH | 16 | –
37 | H-RRIRPRPPSLPRPRPR-OH | 32 | –
38 | H-RRIRPRPPWLPRPRPR-OH | 4 | –
39 | H-RRIRPRPRRLPRPRPR-OH | 16 | –
40 | H-RRIRPRPSRLPRPRPR-OH | 16 | –

Row | Substance | MIC99 [1] [µM] | further results
41 | H-RRIRPRPWRLPRPRPR-OH | 4 | –
42 | H-RRIRPRRPRLPRPRPR-OH | 8 | –
43 | H-RRIRPRSPRLPRPRPR-OH | 16 | –
44 | H-RRIRPRWPRLPRPRPR-OH | 4 | –
45 | H-RRIRPSPPRLPRPRPR-OH | 32 | –
46 | H-RRIRPWPPRLPRPRPR-OH | 8 | –
47 | H-RRIRRRPPRLPRPRPR-OH | 8 | –
48 | H-RRIRSRPPRLPRPRPR-OH | 16 | –
49 | H-RRIRWRPPRLPRPRPR-OH | 4 | –
50 | H-RRISPRPPRLPRPRPR-OH | 32 | –
51 | H-RRIWPRPPRLPRPRPR-OH | 8 | –
52 | H-RRRRPRPPRLPRPRPR-OH | 8 | –
53 | H-RRSRPRPPRLPRPRPR-OH | 16 | –
54 | H-RRWRPRPPRLPRPRPR-OH | 4 | –
55 | H-RSIRPRPPRLPRPRPR-OH | 16 | –
56 | H-RWIRPRPPRLPRPRPR-OH | 8 | –
57 | H-SRIRPRPPRLPRPRPR-OH | 16 | –
58 | H-WRIRPRPPRLPRWRPR-OH | 2 | MIC99 [2]: 8 µM; MBC [3]: > 64 µM; MBC [4]: 32 µM; MBC [5]: 32 µM; MIC99 [6]: 32 µM; inhibition [19]: Active; MBC [7]: > 64 µM; CC50 at 20 h [8]: > 64 µM; MBC [9]: 64 µM; Activity [10]: inactive; MIC99 [11]: 1.5 µM; MBC [12]: 4 µM; MIC99 [13]: > 1 µM; MIC99 [14]: > 64 µM; MIC [15]: 2 µM; MIC99 [16]: > 64 µM; MIC99 [17]: 16 µM; MBC [18]: 2 µM
